Test results taken from article PMC8196580, “Identification of Kaurane-Type Diterpenes as Inhibitors of Leishmania Pteridine Reductase I” (Molecules, 2021).
Where two headings read alike, the source gives them in different places.

How the values were obtained:
L. major [1] = experiment: ChEMBL dataset of pIC50 values against L. major used for the RF model (Table S1); format: cell-based, Leishmania major; further: call rule not given here
L. major [2] = system: L. major; design: method as in ChEMBL; details: ref ChEMBL, cited from earlier work
[3] = Active/Inactive class assigned to the ChEMBL pIC50 value for Random forest model construction, ref ChEMBL
[4] = ChemBL structures with pIC50 values used for Random forest model construction, L. major
[5] = Active/Inactive class assigned to ChemBL structures for Random forest model construction (Table S1)
[6] = ChemBL structures with pIC50 values used for Random forest model construction (Table S1)

| SMILES | Outcome (L. major [1]; [3]) | pIC50 Value (L. major [2]; [4]) | Outcome (L. major [1]; [5]) | pIC50 Value (L. major [2]; [6]) |
| --- | --- | --- | --- | --- |
| COc1ccc(-c2ccc3ccccc3c2)c2c1C(C)=N[C@H](C)C2 [CHEMBL1276917] | Inactive | 4.55 |  |  |
| CC1=N[C@H](C)Cc2c(-c3ccc4ccccc4c3)ccc(O)c21 [CHEMBL1276918] | Inactive | 4.46 |  |  |
| COc1ccc(-c2ccc(OC)c3ccccc23)c2c1C=NC(C)(C)C2 [CHEMBL1277742] | Inactive | 4.43 |  |  |
| COc1ccc(-c2ccc(OC)c3ccccc23)c2c1C=NCC2 [CHEMBL1277828] | Inactive | 4.33 |  |  |
| COc1cccc2c(-c3ccc(O)c4c3CC(C)(C)N=C4)ccc(O)c12 [CHEMBL1277993] | Inactive | 4.00 |  |  |
| COc1ccc(-c2ccc(C)cc2)c2c1C(C)=N[C@H](C)C2 [CHEMBL1278083] | Inactive | 4.08 |  |  |
| COc1ccc(-c2ccc(C(F)(F)F)cc2)c2c1C(C)=N[C@H](C)C2 [CHEMBL1278172] | Inactive | 4.00 |  |  |
| O=C(CCl)N1c2ccccc2CCc2ccccc21 [CHEMBL1314125] | Inactive | 4.36 |  |  |
| COc1cc(C2NC(=O)NC(C)=C2C(C)=O)ccc1O (centres unmarked) [CHEMBL1342564] |  |  | Active | 5.59 |
| COc1ccc(C2NC(=O)NC(C)=C2C(C)=O)cc1 (centres unmarked) [CHEMBL1369396] |  |  | Active | 5.58 |
| O=[N+]([O-])c1ccc2nc(-c3ccc(Cl)cc3)[nH]c2c1 [CHEMBL1407741] |  |  | Active | 5.63 |
| Cc1ccc(-c2nc3ccc([N+](=O)[O-])cc3[nH]2)cc1 [CHEMBL1446966] |  |  | Active | 5.46 |
| O=[N+]([O-])c1ccc2nc(-c3ccccc3[N+](=O)[O-])[nH]c2c1 [CHEMBL1481977] |  |  | Active | 5.59 |
| O=[N+]([O-])c1ccc(-c2nc3ccc([N+](=O)[O-])cc3[nH]2)cc1 [CHEMBL1483847] |  |  | Active | 5.58 |
| CC(=O)C1=C(C)NC(=O)NC1c1ccccc1 (centres unmarked) [CHEMBL1496818] |  |  | Active | 5.58 |
| COc1cccc2c1C(=O)C=C(C)C2=O [CHEMBL1531003] |  |  | Active | 5.48 |
| COc1ccc(-c2nc3ccc([N+](=O)[O-])cc3[nH]2)cc1 [CHEMBL1535921] |  |  | Active | 5.50 |
| O=[N+]([O-])c1cccc(-c2nc3ccc([N+](=O)[O-])cc3[nH]2)c1 [CHEMBL1563210] |  |  | Active | 5.56 |
| CCN1CSC(=S)N(CC)C1 [CHEMBL1571763] | Inactive | 4.42 |  |  |
| Fc1ccc(-c2nc3ccccc3[nH]2)cc1 [CHEMBL1596095] |  |  | Active | 5.43 |
| O=C(CCl)N(c1ccccc1)c1ccccc1 [CHEMBL1603760] | Inactive | 4.39 |  |  |
| COc1ccccc1NC(=O)CCC(=O)O [CHEMBL1605594] |  |  | Active | 7.81 |
| O=C(CCl)N1c2ccccc2Sc2ccccc21 [CHEMBL1651446] | Active | 5.03 |  |  |
| O=C(CCl)n1c2ccccc2c2ccccc21 [CHEMBL1651449] | Inactive | 4.00 |  |  |
| c1ccc(-c2nc3ccccn3c2-c2ccccc2)cc1 [CHEMBL1719415] | Inactive | 4.65 |  |  |
| N#Cc1ccc(N2CCN(c3nnc(-c4ccc([N+](=O)[O-])o4)s3)CC2)cc1 [CHEMBL1783198] | Inactive | 3.98 |  |  |
| CCOC(=N)c1ccc(N2CCN(c3nnc(-c4ccc([N+](=O)[O-])o4)s3)CC2)cc1.Cl [CHEMBL1783199] | Inactive | 4.32 |  |  |
| Cl.N=C(N)c1ccc(N2CCN(c3nnc(-c4ccc([N+](=O)[O-])o4)s3)CC2)cc1 [CHEMBL1783200] | Inactive | 3.95 |  |  |
